Data from patent EP0774461A1, “Excitatory amino acid derivatives” (ELI LILLY AND COMPANY, priority 1995, dated 1997).
pIC50: −log10 of the molar value.

Tested on: metabotropic glutamate receptors
Experiment: displacement of 1S,3R-ACPD-sensitive [3H]glutamate binding to rat brain cell membranes
Conditions: selective displacement of 1S,3R-ACPD-sensitive [3H]glutamate binding; crude membranes of rat forebrain
Method: The binding of [^3H]glutamate was conducted with crude membranes of rat forebrain as described by Schoepp and True. Schoepp and True, Neuroscience Lett., 145, 100-104 (1992) and Wright et al., J. Neurochemistry 63: 938-945 (1994).

N[C@]1(C(=O)O)CO[C@@H]2[C@@H](C(=O)O)[C@@H]21 (racemic) [Example 1, 1SR,4SR,5RS,6SR-4-Amino-2-Oxabicyclo[3.1.0]hexane-4,6-dicarboxylic Acid]
pIC50: 7.26
